Test results from US10828305B2 (SHANGHAI PHARMACEUTICALS HOLDING CO., LTD., priority 2016, dated 2020).
pIC50: −log10 of the molar value. Where two headings read alike, the source gives them in different places.

Experiments:
[1] = tested on: human gastric cancer NCI-N87 xenograft; experiment: HER2 overexpressing human gastric cancer NCI-N87 xenograft model in nude mice; assay type: in vivo, Balb/c nude mice; conditions: oral, 22 days
CYP1A2 = biological target: T1, CYP1A2 (Homo sapiens, UniProt P05177); experiment: Direct inhibition of CYP1A2, human liver microsome; assay type: in vitro ADME; conditions: probe phenacetin, read-out: IC50 1A2 (Phenacetin)
T1 construct: from tissue; host or cells: human liver microsomes
T1 sequence (P05177 1-516): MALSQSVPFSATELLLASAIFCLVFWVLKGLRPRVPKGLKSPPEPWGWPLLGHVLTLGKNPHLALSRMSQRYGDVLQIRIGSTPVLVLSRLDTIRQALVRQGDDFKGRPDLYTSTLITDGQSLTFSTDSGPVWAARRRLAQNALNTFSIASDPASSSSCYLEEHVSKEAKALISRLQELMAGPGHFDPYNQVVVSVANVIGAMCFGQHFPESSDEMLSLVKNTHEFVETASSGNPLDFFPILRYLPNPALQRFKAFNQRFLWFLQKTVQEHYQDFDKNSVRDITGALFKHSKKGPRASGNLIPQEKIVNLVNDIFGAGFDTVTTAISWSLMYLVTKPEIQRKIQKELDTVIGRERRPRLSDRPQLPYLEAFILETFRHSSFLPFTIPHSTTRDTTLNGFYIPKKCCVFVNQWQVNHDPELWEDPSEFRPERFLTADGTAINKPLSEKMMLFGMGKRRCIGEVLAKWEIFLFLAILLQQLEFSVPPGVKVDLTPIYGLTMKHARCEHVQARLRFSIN
Description: (§1) Research on Direct Inhibition of CYP3A4, CYP2D6, CYP2C9, CYP2C19, CYP1A2
(§2) 100 μL human liver microsome (with final concentration of 0.2 mg/mL) was used for direct inhibition under warm incubation, the positive control system contained NADPH (with final concentration of 1 mmol/L), a mixture of positive inhibitors (ketoconazole 0.01 to 10 μmol/L, quinidine 0.01 to 10 μmol/L, sulfaphenazole 0.1 to 100 μmol/L, tranylcypromine 1 to 1000 μmot/L, α-naphthoflavone 0.01 to 10 μmol/L), and a substrate mixture (with final concentration of midazolam 10 μmol/L, testosterone 100 μmol/L, dextromethorphan 10 μmol/L, diclofenac 20 μmol/L, S-mephenytoin 50 μmol/L, phenacetin 100 μmol/L), and the reaction was terminated after incubation for 20 min. The positive inhibitor was replaced with 0.1 to 100 μmol/L test compound in the test compound group. The reaction was terminated with acetonitrile containing 0.11 μg/mL internal standard tinidazole (1:3), vortexed for 10 min, centrifuged at 6000×g for 10 min, 50 μL supernatant was taken and put into a 96-well plate for injection.
(§3) In this experiment, IC50 of inhibition of the compound on the enzyme was calculated by measuring relative production of the probe metabolite. The activity of CYP3A4 was simultaneously characterized by two probes of midazolam and testosterone.

CYP2C19 = biological target: T2, CYP2C19 (Homo sapiens, UniProt P33261); experiment: Direct inhibition of CYP2C19, human liver microsome; assay type: in vitro ADME; conditions: probe mephenytoin, read-out: IC50 2C19 (Mephenytoin)
T2 construct: from tissue; host or cells: human liver microsomes
T2 sequence (P33261 whole entry): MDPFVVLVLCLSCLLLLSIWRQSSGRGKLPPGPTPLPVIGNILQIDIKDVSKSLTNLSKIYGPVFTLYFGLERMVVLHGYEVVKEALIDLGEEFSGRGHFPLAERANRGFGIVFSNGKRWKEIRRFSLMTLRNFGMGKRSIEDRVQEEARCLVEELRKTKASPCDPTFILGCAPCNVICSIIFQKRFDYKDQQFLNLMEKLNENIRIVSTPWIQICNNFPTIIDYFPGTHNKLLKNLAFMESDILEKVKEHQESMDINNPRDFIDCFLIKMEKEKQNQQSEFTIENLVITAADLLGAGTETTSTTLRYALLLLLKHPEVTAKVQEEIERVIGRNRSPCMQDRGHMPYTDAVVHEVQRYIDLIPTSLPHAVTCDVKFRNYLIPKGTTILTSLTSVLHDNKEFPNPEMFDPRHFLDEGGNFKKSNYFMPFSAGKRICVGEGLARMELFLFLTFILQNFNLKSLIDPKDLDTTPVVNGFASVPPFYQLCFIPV
Description: as §1, §2, §3

[2] = tested on: human breast cancer BT-474 xenograft; conditions: oral, 20 days
CYP2C8 = biological target: T3, CYP2C8 (Homo sapiens, UniProt P10632); experiment: Direct inhibition of CYP2C8, human liver microsome; assay type: in vitro ADME; conditions: probe paclitaxel, read-out: IC50 2C8 (Paclitaxel)
T3 construct: from tissue; host or cells: human liver microsomes
T3 sequence (P10632 1-490): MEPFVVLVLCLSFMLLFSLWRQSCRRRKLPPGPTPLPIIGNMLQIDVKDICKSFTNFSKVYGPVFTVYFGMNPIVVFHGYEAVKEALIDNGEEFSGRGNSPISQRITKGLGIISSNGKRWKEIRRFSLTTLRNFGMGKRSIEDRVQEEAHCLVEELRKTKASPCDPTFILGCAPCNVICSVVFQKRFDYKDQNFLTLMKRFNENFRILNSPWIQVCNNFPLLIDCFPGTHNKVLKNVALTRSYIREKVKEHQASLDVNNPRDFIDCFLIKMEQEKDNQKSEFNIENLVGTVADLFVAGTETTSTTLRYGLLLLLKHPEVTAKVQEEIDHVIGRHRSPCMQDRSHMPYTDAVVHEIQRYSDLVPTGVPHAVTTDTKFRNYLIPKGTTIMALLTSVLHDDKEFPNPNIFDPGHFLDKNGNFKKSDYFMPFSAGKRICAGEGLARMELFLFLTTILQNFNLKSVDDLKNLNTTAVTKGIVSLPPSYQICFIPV
Description: Research on Direct Inhibition of CYP2B6 and CYP2C8
100 μL human liver microsome (with final concentration of 0.2 mg/mL) was used for direct inhibition under warm incubation. The positive control system contained NADPH (with final concentration of 1 mmol/L), a mixture of positive inhibitors (ketoconazole 0.05 to 50 μmol/L, montelukast sodium 0.001 to 1 μmol/L), and a substrate mixture (with final concentration of amfepramone 50 μmol/L and paclitaxel 5 μmol/L), and the reaction was terminated after incubation for 20 min. The positive inhibitor was replaced with 0.1 to 100 μmol/L test compound in the test compound group. The reaction was terminated with acetonitrile containing […] internal standard tinidazole (1:3), vortexed for 10 min, centrifuged at 6000×g for 10 min, and 50 μL supernatant was taken and put into a 96-well plate for injection.
as §3

CYP2D6 = biological target: T4, CYP2D6 (Homo sapiens, UniProt P10635); experiment: Direct inhibition of CYP2D6, human liver microsome; assay type: in vitro ADME; conditions: probe dextromethorphan, read-out: IC50 2D6 (Dextromethorphan)
T4 construct: from tissue; host or cells: human liver microsomes
T4 sequence (P10635 whole entry): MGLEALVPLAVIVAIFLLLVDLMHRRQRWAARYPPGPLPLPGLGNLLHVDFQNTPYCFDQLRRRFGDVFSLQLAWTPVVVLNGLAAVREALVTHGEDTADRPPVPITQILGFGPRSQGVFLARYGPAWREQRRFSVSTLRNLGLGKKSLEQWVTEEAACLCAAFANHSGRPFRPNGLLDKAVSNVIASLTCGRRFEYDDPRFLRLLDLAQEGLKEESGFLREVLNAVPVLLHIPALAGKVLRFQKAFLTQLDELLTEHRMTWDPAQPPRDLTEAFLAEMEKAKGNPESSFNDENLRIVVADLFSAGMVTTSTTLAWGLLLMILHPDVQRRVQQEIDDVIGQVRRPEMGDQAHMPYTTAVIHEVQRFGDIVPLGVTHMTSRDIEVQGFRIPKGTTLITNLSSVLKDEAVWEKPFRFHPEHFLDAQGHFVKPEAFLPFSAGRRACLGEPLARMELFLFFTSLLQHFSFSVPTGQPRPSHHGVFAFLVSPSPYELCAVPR
Description: as §1, §2, §3

CYP3A4 = biological target: T5, CYP3A4 (Homo sapiens, UniProt P08684); experiment: Direct inhibition of CYP3A4, human liver microsome; assay type: in vitro ADME
T5 construct: from tissue; host or cells: human liver microsomes
T5 sequence (P08684 whole entry): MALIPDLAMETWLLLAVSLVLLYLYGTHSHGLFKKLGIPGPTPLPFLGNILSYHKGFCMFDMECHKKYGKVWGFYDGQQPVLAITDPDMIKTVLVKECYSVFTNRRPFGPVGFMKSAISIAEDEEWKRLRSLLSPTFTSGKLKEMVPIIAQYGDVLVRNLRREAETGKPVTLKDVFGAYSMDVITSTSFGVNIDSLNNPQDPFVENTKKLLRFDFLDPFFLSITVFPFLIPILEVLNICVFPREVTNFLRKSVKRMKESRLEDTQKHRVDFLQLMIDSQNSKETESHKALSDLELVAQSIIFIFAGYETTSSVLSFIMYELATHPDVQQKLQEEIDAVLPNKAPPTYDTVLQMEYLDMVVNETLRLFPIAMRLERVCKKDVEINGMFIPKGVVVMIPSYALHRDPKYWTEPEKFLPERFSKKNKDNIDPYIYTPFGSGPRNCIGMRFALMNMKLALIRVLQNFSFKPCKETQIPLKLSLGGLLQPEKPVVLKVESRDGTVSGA
Description: as §1, §2, §3

[3] = probe midazolam, read-out: IC50 3A4 (Midazolam)
[4] = probe testosterone, read-out: IC50 3A4 (testosterone)

Row | Structure (SMILES) | tumor volume inhibition rate (GI %) ([1]; 50MPK) | pIC50 (CYP1A2) | pIC50 (CYP2C19) | tumor volume inhibition rate (GI %) ([2]; 100MPK) | pIC50 (CYP2C8) | pIC50 (CYP2D6) | pIC50 (CYP3A4; [3]) | pIC50 (CYP3A4; [4]) | tumor volume inhibition rate (GI %) ([1]; 100MPK) | tumor volume inhibition rate (GI %) ([2]; 25MPK) | tumor volume inhibition rate (GI %) ([2]; 50MPK) | tolerability [2]
1 | Cc1cc(Nc2ncnc3ccc(NC4=NC(C)(C)CO4)cc23)ccc1Oc1ccn2ncnc2c1 [ARRY-380, reference compound] | 59.5% | 4.03 | 4.46 | 108.8% | 5.52 | 5.52 | 4.96 | 4.96 |  |  |  | 
2 | Cc1cc(Nc2ncnc3ccc(NC4=NC(C)(C)CO4)cc23)ccc1Oc1cc2nncn2cn1 [Embodiment 4, N^4-(4-([1,2,4]triazolo[4,3-c]pyrimidin-7-yloxy)-3-methylphenyl)-N^6-(4,4-dimethyl-4,5-dihydrooxazol-2-yl)quinazoline-4,6-diamine] | 84.3% | 4.47 | 4.28 | 126.4% | 4.82 | 4.92 | 4.60 | 4.68 | 117.9% | 70.3% | 103.2% | good tolerability
